Test results taken from patent US20180296542A1, “IMINOSUGARS FOR IMPROVING BONE MINERAL DENSITY IN BONE DISEASE” (Saint Louis University, priority 2015, published 2018).
Several values for one entry are separate records, joined by “and”; a condition that tells them apart may be missing. Equal values may be shown once. Entries after “also recorded” stand apart in the source; their conditions may differ.

Key:
[1] = tested on: TNSALP-null (Akp2^−/−) mice, in vivo model of infantile HPP (wild-type, heterozygous, homozygous); test: MicroCT bone mineral density of femur cortical bone after one month of Miglustat (Example 1); conditions: for Mean/Density [mg HA/ccm] of TV (Apparent) (BMD), individual mice: femur diaphysis cortical bone, one value per mouse
Protocol: -null (Akp2^-/-) mice served as an in vivo model of infantile HPP to analyze the effects of Miglustat as a treatment for HPP through BMD measurements. […] Resembling patients with HPP, elevated substrate concentrations of PEA, PPi, and PLP were found in urine samples from knock-out mice. […] All experiments were conducted with the highest standards of humane animal care at Saint Louis University under an approved IACUC protocol. Mice were genotyped as wild-type, heterozygous, or homozygous through DNA extraction, polymerase chain reaction (PCR), and gel electrophoresis. After DNA was extracted from an ear tissue sample, PCR was used to generate copies of the DNA for gel electrophoresis (2% agarose and Tris-Acetate-EDTA (TAE) buffer). The following primers were used: [NT] ID NO:1), [NT] ID NO:2), [NT] ID NO:3, wild-type allele: 160 bp, mutant allele: 195 bp). At the age of one month, mice were administered 100 μL injections of phosphate-buffered saline (PBS) with 0 mg/kg, 400 mg/kg, or 1200 mg/kg of Miglustat (250 mg/mL) to the peritoneal cavity for gradual diffusion of the drug. Mice were massed each day to adjust Miglustat dosages to body weight. Intraperitoneal injections (IP) continued daily for one month before mice were euthanized with CO2 at the age of two months. Mice were on a Pyridoxine Supplement Diet (“Vitamin B6 Diet”) to prevent seizures. […] (Systems EngineeringTM) was provided every alternating day to prevent dehydration. Urine samples were collected once a week and blood samples were collected from cheek tissue at the beginning and end of treatment. Full-body ventral and side-view x-rays were taken after euthanizing the mice. The left anatomical legs were dissected to obtain the femoral bones. Femurs were then frozen before being placed in 10% formalin the day prior to microCT scanning. Four bones were inserted into a gel cast (2.5% agarose and TAE buffer) at a time and covered with 2.5% agarose and TAE buffer to create gel capsules that were placed in sample tubes (diameter: 11.5 mm, height: 75 mm) for microCT scanning Cortical bone scans (voxel size: 12 μm) were performed at the diaphysis (femoral shaft) using a SCANCO μCT 35 system (SCANCO Medical; Brü[…], Switzerland). MicroCT scans were analyzed using SCANCO Medical microCT software to produce three dimensional reconstructions of the bones and determine bone mineral density (BMD) as the mean/density [mg HA/ccm] of total volume (TV) (Apparent). The total length of each bone was measured as the distance from the greater trochanter to the distal end. Only the middle 20% of each femur was accounted for during cortical bone analysis. Statistical analysis included calculating the average mean/density [mg HA/ccm] of TV (Apparent) and standard error for each treatment group to determine the estimated standard deviation of the statistics. Standard deviation and standard error were not calculated for homozygous mice due to count values below three. Full-body ventral and side x-rays were taken and microCT scans were performed on the femurs of each mouse. The bone mineral densities of the femurs were recorded in units of hydroxyapatite density as the mean/density [mg HA/ccm] of TV (apparent). The average bone mineral densities (average mean/density [mg HA/ccm] of TV (apparent) were then calculated for each treatment group. Statistical analysis, including standard deviation and standard error, was only performed for the wild-types and heterozygotes due to insufficient data for the homozygous mice. A minimum of three mice were required for statistical analysis.

[2] = tested on: TNSALP-null (Akp2^−/−) mice (WT, Het, KO); test: X-Rays of femurs (Example 2); type: in vivo; conditions: 400 and 1200 mg/kg Miglustat, FIGS. 13A-13I
Protocol: FIGS. 13A-13I are X-Rays of femurs from Wild-type mice administered PBS (WT-PBS; FIG. 13A), Heterozygous mice administered PBS (Het-PBS; FIG. 13B), Homozygous mice administered PBS (KO-PBS; FIG. 13C), Wild-type mice administered 400 mg/kg Miglustat (WT-400 mg/kg; FIG. 13D), Heterozygous mice administered 400 mg/kg Miglustat (Het-400 mg/kg; FIG. 13E), Homozygous mice administered 400 mg/kg Miglustat (KO-400 mg/kg; FIG. 13F), Wild-type mice administered 1200 mg/kg Miglustat (WT-1200 mg/kg; FIG. 13G), Heterozygous mice administered […] Miglustat (Het-1200 mg/kg; FIG. 13H), Homozygous mice administered […] Miglustat (KO-1200 mg/kg; FIG. 13I) showing increased bone at primary ossification centers (arrowheads).
Full-body ventral and side-view x-rays were taken after euthanizing the mice. The left anatomical legs were dissected to obtain the femoral bones. Femurs were then frozen before being placed in 10% formalin the day prior to microCT scanning. […]
Mice were obtained, bred and genotyped as described above. […] A total of 44 mice were analyzed (1 Akp2^−/− homozygous mouse was omitted in the PBS group). Mice were scanned using microCT and analyzed as described above. […]

patients with Type 1 GD = conditions: cited from earlier work
[3] = homozygous mice, Miglustat 400 mg/kg

CCCCN1C[C@H](O)[C@@H](O)[C@H](O)[C@H]1CO [Miglustat, (2R,3R,4R,5S)-1-butyl-2-(hydroxymethyl)piperidine-3,4,5-triol]
Average BMD with Miglustat dosage versus PBS groups (in words) ([1]; across genotypes, except wild-type mice at 1200 mg/kg, one month of treatment, 1200 mg/kg): higher average BMDs; also recorded: BMD increased with Miglustat dosage; also recorded: higher average BMD values
Average BMD versus PBS heterozygotes (in words) ([1]; heterozygous mice, Miglustat 400 mg/kg): slight improvement; also recorded: higher average BMD value
Mean/Density [mg HA/ccm] of TV (Apparent) (BMD), individual mice ([1]; heterozygous mice, Miglustat 400 mg/kg IP daily for one month): 983.17 mg HA/ccm and 937.07 mg HA/ccm and 968.62 mg HA/ccm
Average Mean/Density [mg HA/ccm] of TV (Apparent) (average BMD) ([1]; heterozygous mice, Miglustat 400 mg/kg, n=3, ± standard error): 962.95±13.61 mg HA/ccm and 962.95 mg HA/ccm
Average BMD versus PBS heterozygotes and PBS wild-types (in words) ([1]; heterozygous mice, Miglustat 1200 mg/kg): even greater improvement; also recorded: match or even surpass; also recorded: matched and surpassed
Mean/Density [mg HA/ccm] of TV (Apparent) (BMD), individual mice ([1]; heterozygous mice, Miglustat 1200 mg/kg IP daily for one month): 980.88 mg HA/ccm and 984.82 mg HA/ccm and 979.78 mg HA/ccm and 1006.65 mg HA/ccm
Average Mean/Density [mg HA/ccm] of TV (Apparent) (average BMD) ([1]; heterozygous mice, Miglustat 1200 mg/kg, n=4, ± standard error): 988.03±6.30 mg HA/ccm and 988.03 mg HA/ccm
Differences in mineralization in microCT scans between treatments ([1]; heterozygous mice, PBS vs 400 vs 1200 mg/kg Miglustat): not discernable
Mean/Density [mg HA/ccm] of TV (Apparent) (BMD), individual mice ([1]; homozygous (Akp2^−/−) mice, Miglustat 400 mg/kg IP daily for one month): 881.08 mg HA/ccm and 1054.98 mg HA/ccm
Average Mean/Density [mg HA/ccm] of TV (Apparent) (average BMD) ([1]; homozygous (Akp2^−/−) mice, Miglustat 400 mg/kg, n=2): 968.03 mg HA/ccm
Average BMD versus knockouts on PBS (in words) [1, 3]: substantial difference; also recorded: higher average BMD
Cortical bone mineralization at the diaphysis in microCT scans [1, 3]: improper cortical bone mineralization
Average BMD versus other treatment groups (in words) ([1]; wild-type mice, Miglustat 400 mg/kg): greater; also recorded: increased; also recorded: highest average BMD
Mean/Density [mg HA/ccm] of TV (Apparent) (BMD), individual mice ([1]; wild-type mice, Miglustat 400 mg/kg IP daily for one month): 1000.00 mg HA/ccm and 990.58 mg HA/ccm and 991.31 mg HA/ccm and 1004.30 mg HA/ccm and 995.88 mg HA/ccm
Average Mean/Density [mg HA/ccm] of TV (Apparent) (average BMD) ([1]; wild-type mice, Miglustat 400 mg/kg, n=5, ± standard error): 996.41±2.60 mg HA/ccm and 996.41 mg HA/ccm
Average BMD versus PBS wild-type group (in words) ([1]; wild-type mice, Miglustat 1200 mg/kg): no change
Mean/Density [mg HA/ccm] of TV (Apparent) (BMD), individual mice ([1]; wild-type mice, Miglustat 1200 mg/kg IP daily for one month): 973.20 mg HA/ccm and 985.09 mg HA/ccm and 969.63 mg HA/ccm and 967.00 mg HA/ccm
Average Mean/Density [mg HA/ccm] of TV (Apparent) (average BMD) ([1]; wild-type mice, Miglustat 1200 mg/kg, n=4, ± standard error): 974.48±3.63 mg HA/ccm and 974.48 mg HA/ccm
Bone at primary ossification centers (X-Rays of femurs) [2]: increased
BMD (patients with Type 1 GD): increased
Bone pain (patients with Type 1 GD): alleviated
